Experimental data as given in patent US20250059207A1, “6,6-FUSED HETEROCYCLIC COMPOUNDS AS METTL3 INHIBITORS” (858 Therapeutics, Inc., priority 2021, published 2025).

Test system: MOLM-13 cells
Assay: Viability assay in MOLM-13 cells (CellTiter-Glo 2.0)
Type: cell-based, human
Conditions: Homo sapiens, MOLM-13, 72 h, read-out: MOLM-13 IC50 (cell viability)
Protocol: Effects of test compounds on the proliferation and viability of human AML cells was evaluated using the MOLM-13 cell line (AddexBio Technologies cat. no. C0003003). […] Test compounds or controls (Bortezomib or DMSO) diluted in 2% DMSO/media were added to each well for final concentrations of 0.2% DMSO and 0.1-1 μM Bortezomib. The cells were incubated for 72 hours at 37° C. and 5% CO2. At the end of the 72 hour incubation, plates were removed from the incubator, cooled to room temperature and equal volume of CellTiter-Glo 2.0 (Promega) added to each well. After mixing and incubating the plate at room temperature for 10 minutes the luminescence was read using a plate reader. […] Concentration-response-curves and IC50 values were generated using Collaborative Drug Discovery software.

SMILES | IC50
O=c1c2cncc(-c3ccccc3)c2ccn1Cc1cn2cc(CNC3(c4ccccc4)CC3)ccc2n1 [Compound 78, 5-phenyl-2-((6-(((1-phenylcyclopropyl)amino)methyl)imidazo[1,2-a]pyridin-2-yl)methyl)-2,7-naphthyridin-1(2H)-one] | 1 to 10 µM
O=c1c2cncc(N3CC4(CCOC4)C3)c2ccn1Cc1cn2cc(CNCC34CC(F)(C3)C4)ccc2n1 [Compound 151, 2-((6-((((3-fluorobicyclo[1.1.1]pentan-1-yl)methyl)amino)methyl)imidazo[1,2-a]pyridin-2-yl)methyl)-5-(6-oxa-2-azaspiro[3.4]octan-2-yl)-2,7-naphthyridin-1(2H)-one] | < 1 µM
Cc1ccc2nc(Cn3ccc4c(N5CCC5)cncc4c3=O)cn2c1 [Compound 9, 5-(azetidin-1-yl)-2-((6-methylimidazo[1,2-a]pyridin-2-yl)methyl)-2,7-naphthyridin-1(2H)-one] | > 10 µM
O=c1c2cncc(-c3ccccc3)c2ccn1Cc1cn2cc(CNCc3ccc(Cl)cc3)ccc2n1 [Compound 84, 2-((6-(((4-chlorobenzyl)amino)methyl)imidazo[1,2-a]pyridin-2-yl)methyl)-5-phenyl-2,7-naphthyridin-1(2H)-one] | 1 to 10 µM
O=c1c2cnccc2ccn1Cc1cn2cc(CNCc3ccccc3)ccc2n1 [Compound 69, 2-((6-((benzylamino)methyl)imidazo[1,2-a]pyridin-2-yl)methyl)-2,7-naphthyridin-1(2H)-one] | > 10 µM

Same assay, conditions: MOLM-13 human AML cells, 72 hours, CellTiter-Glo 2.0; read-out: MOLM-13 IC50 (cell viability)

SMILES | IC50
CC1(C)CCN(Cc2ccc3nc(Cn4ccc5c(N6CC7(C6)CC(F)(F)C7)cncc5c4=O)cn3c2)CC1 [Compound 111, 5-{6,6-difluoro-2-azaspiro[3.3]heptan-2-yl}-2-({6-[(4,4-dimethylpiperidin-1-yl)methyl]imidazo[1,2-a]pyridin-2-yl}methyl)-1,2-dihydro-2,7-naphthyridin-1-one] | > 10 µM
CC1(C)CCN(Cc2ccc3nc(Cn4ccc5c(N6CC(N7CCOCC7)C6)cncc5c4=O)cn3c2)CC1 [Compound 118, 2-({6-[(4,4-dimethylpiperidin-1-yl)methyl]imidazo[1,2-a]pyridin-2-yl}methyl)-5-[3-(morpholin-4-yl)azetidin-1-yl]-1,2-dihydro-2,7-naphthyridin-1-one] | 1 to 10 µM
Cc1ccc2nc(Cn3ccc4c(-c5c(F)cccc5F)cncc4c3=O)cn2c1 [Compound 29, 5-(2,6-difluorophenyl)-2-((6-methylimidazo[1,2-a]pyridin-2-yl)methyl)-2,7-naphthyridin-1(2H)-one] | > 10 µM
Cc1ccc2nc(Cn3ccc4c(-c5ccccc5C#N)cncc4c3=O)cn2c1 [Compound 28, 2-(7-((6-methylimidazo[1,2-a]pyridin-2-yl)methyl)-8-oxo-7,8-dihydro-2,7-naphthyridin-4-yl)benzonitrile] | > 10 µM
O=c1c2cncc(N3CC4(CCOCC4)C3)c2ccn1Cc1cn2cc(CN3CCC4(CCOC4)C3)ccc2n1 (stereo not shown) [Compound 130, 5-{7-oxa-2-azaspiro[3.5]nonan-2-yl}-2-{[6-({2-oxa-7-azaspiro[4.4]nonan-7-yl}methyl)imidazo[1,2-a]pyridin-2-yl]methyl}-1,2-dihydro-2,7-naphthyridin-1-one] | 1 to 10 µM
NC(=O)c1ccc(-c2cncc3c(=O)n(Cc4cn5cc(CNCC67CC(F)(C6)C7)ccc5n4)ccc23)cc1 [Compound 155, 4-{7-[(6-{[({3-fluorobicyclo[1.1.1]pentan-1-yl}methyl)amino]methyl}imidazo[1,2-a]pyridin-2-yl)methyl]-8-oxo-7,8-dihydro-2,7-naphthyridin-4-yl}benzamide] | 1 to 10 µM
CC1(C#N)CCN(Cc2ccc3nc(Cn4ccc5c(N6CC7(CCOCC7)C6)cncc5c4=O)cn3c2)CC1 [Compound 134, 4-methyl-1-({2-[(5-{7-oxa-2-azaspiro[3.5]nonan-2-yl}-1-oxo-1,2-dihydro-2,7-naphthyridin-2-yl)methyl]imidazo[1,2-a]pyridin-6-yl}methyl)piperidine-4-carbonitrile] | > 10 µM
O=c1c2cncc(N3CC4(CCOCC4)C3)c2ccn1Cc1cn2cc(CN3CCC4(C3)CC(F)(F)C4)ccc2n1 [Compound 140, 2-{[6-({2,2-difluoro-6-azaspiro[3.4]octan-6-yl}methyl)imidazo[1,2-a]pyridin-2-yl]methyl}-5-{7-oxa-2-azaspiro[3.5]nonan-2-yl}-1,2-dihydro-2,7-naphthyridin-1-one] | 1 to 10 µM
O=c1c2cncc(N3CC4(CCOCC4)C3)c2ccn1Cc1cn2cc(CN3CCC4(CC3)CC4)ccc2n1 [Compound 127, 2-{[6-({6-azaspiro[2.5]octan-6-yl}methyl)imidazo[1,2-a]pyridin-2-yl]methyl}-5-{7-oxa-2-azaspiro[3.5]nonan-2-yl}-1,2-dihydro-2,7-naphthyridin-1-one] | 1 to 10 µM
O=c1c2cncc(N3CC(c4ccc(F)cc4)C3)c2ccn1Cc1cn2cc(CNCC3CC(F)C3)ccc2n1 (stereo not shown) [Compound 150, 2-{[6-({[(3-fluorocyclobutyl)methyl]amino}methyl)imidazo[1,2-a]pyridin-2-yl]methyl}-5-[3-(4-fluorophenyl)azetidin-1-yl]-1,2-dihydro-2,7-naphthyridin-1-one] | 1 to 10 µM
O=c1c2cncc(N3CC4(CCOCC4)C3)c2ccn1Cc1cn2cc(CN3CCC4(CCCC4)C3)ccc2n1 [Compound 137] | 1 to 10 µM
CC1(C)CCN(Cc2ccc3nc(Cn4ccc5c(N6CC7COCC7C6)cncc5c4=O)cn3c2)CC1 (stereo not shown) [Compound 117, 2-({6-[(4,4-dimethylpiperidin-1-yl)methyl]imidazo[1,2-a]pyridin-2-yl}methyl)-5-{hexahydro-1H-furo[3,4-c]pyrrol-5-yl}-1,2-dihydro-2,7-naphthyridin-1-one] | > 10 µM
O=c1c2cncc(N3CC4(COC4)C3)c2ccn1Cc1cn2cc(CNCC3CC(F)C3)ccc2n1 (stereo not shown) [Compound 143, 2-{[6-({[(3-fluorocyclobutyl)methyl]amino}methyl)imidazo[1,2-a]pyridin-2-yl]methyl}-5-{2-oxa-6-azaspiro[3.3]heptan-6-yl}-1,2-dihydro-2,7-naphthyridin-1-one] | 1 to 10 µM
O=c1c2cncc(-c3ccccc3)c2ccn1Cc1cn2cc(CNc3ccccn3)ccc2n1 [Compound 100, 5-phenyl-2-((6-((pyridin-2-ylamino)methyl)imidazo[1,2-a]pyridin-2-yl)methyl)-2,7-naphthyridin-1(2H)-one] | 1 to 10 µM
CC1(C)CCN(Cc2ccc3nc(Cn4ccc5c(N6CC7(CCNCC7)C6)cncc5c4=O)cn3c2)CC1 [Compound 119, 5-{2,7-diazaspiro[3.5]nonan-2-yl}-2-({6-[(4,4-dimethylpiperidin-1-yl)methyl]imidazo[1,2-a]pyridin-2-yl}methyl)-1,2-dihydro-2,7-naphthyridin-1-one] | 1 to 10 µM
CC1CCC(CNCc2ccc3nc(Cn4ccc5c(-c6ccccc6)cncc5c4=O)cn3c2)CC1 (stereo not shown) [Compound 85, 2-((6-((((4-methylcyclohexyl)methyl)amino)methyl)imidazo[1,2-a]pyridin-2-yl)methyl)-5-phenyl-2,7-naphthyridin-1(2H)-one] | 1 to 10 µM
Cc1ccc2nc(Cn3cc(C)c4ccncc4c3=O)cn2c1 [Compound 49, 4-methyl-2-((6-methylimidazo[1,2-a]pyridin-2-yl)methyl)-2,7-naphthyridin-1(2H)-one] | 1 to 10 µM
Cc1ccc2nc(Cn3ccc4c(N5CCCCC5)cncc4c3=O)cn2c1 [Compound 10, 2-((6-methylimidazo[1,2-a]pyridin-2-yl)methyl)-5-(piperidin-1-yl)-2,7-naphthyridin-1(2H)-one] | > 10 µM
CC1(C)CCN(Cc2ccc3nc(Cn4ccc5c(N6CC7(CCOCC7)C6)cncc5c4=O)cn3c2)CC1 [Compound 114, 2-({6-[(4,4-dimethylpiperidin-1-yl)methyl]imidazo[1,2-a]pyridin-2-yl}methyl)-5-{7-oxa-2-azaspiro[3.5]nonan-2-yl}-1,2-dihydro-2,7-naphthyridin-1-one] | 1 to 10 µM
CNC(=O)c1ccc(-c2cncc3c(=O)n(Cc4cn5cc(C)ccc5n4)ccc23)cc1 [Compound 26, N-methyl-4-(7-((6-methylimidazo[1,2-a]pyridin-2-yl)methyl)-8-oxo-7,8-dihydro-2,7-naphthyridin-4-yl)benzamide] | > 10 µM
O=c1c2cncc(N3CC4(CCOCC4)C3)c2ccn1Cc1cn2cc(CN3CC4(C3)CC(F)(F)C4)ccc2n1 [Compound 135, 2-{[6-({6,6-difluoro-2-azaspiro[3.3]heptan-2-yl}methyl)imidazo[1,2-a]pyridin-2-yl]methyl}-5-{7-oxa-2-azaspiro[3.5]nonan-2-yl}-1,2-dihydro-2,7-naphthyridin-1-one] | 1 to 10 µM
O=c1c2cncc(-c3ccccc3)c2ccn1Cc1cn2cc(CNCC3CC(F)C3)ccc2n1 (stereo not shown) [Compound 79, 2-((6-((((3-fluorocyclobutyl)methyl)amino)methyl)imidazo[1,2-a]pyridin-2-yl)methyl)-5-phenyl-2,7-naphthyridin-1(2H)-one] | 1 to 10 µM
O=c1c2cncc(-c3ccccc3)c2ccn1Cc1cn2cc(CNCC3CCCC3)ccc2n1 [Compound 76, 2-((6-(((cyclopentylmethyl)amino)methyl)imidazo[1,2-a]pyridin-2-yl)methyl)-5-phenyl-2,7-naphthyridin-1(2H)-one] | 1 to 10 µM
O=c1c2cncc(N3CC4(CCC4)C3)c2ccn1Cc1cn2cc(CNCC3CC(F)C3)ccc2n1 (stereo not shown) [Compound 110, 2-((6-((((3-fluorocyclobutyl)methyl)amino)methyl)imidazo [1,2-a]pyridin-2-yl)methyl)-5-(2-azaspiro[3.3]heptan-2-yl)-2,7-naphthyridin-1(2H)-one] | 1 to 10 µM
O=c1c2cncc(-c3ccccc3)c2ccn1Cc1cn2cc(CNc3cc(NCCCCl)ccn3)ccc2n1 [Compound 96, 2-((6-(((4-((3-chloropropyl)amino)pyridin-2-yl)amino)methyl)imidazo [1,2-a]pyridin-2-yl)methyl)-5-phenyl-2,7-naphthyridin-1(2H)-one] | 1 to 10 µM
COc1ccnc(NCc2ccc3nc(Cn4ccc5c(-c6ccccc6)cncc5c4=O)cn3c2)c1 [Compound 101, 2-((6-(((4-methoxypyndin-2-yl)amino)methyl)imidazo[1,2-a]pyridin-2-yl)methyl)-5-phenyl-2,7-naphthyridin-1(2H)-one] | 1 to 10 µM
